Results published in patent EP3628672A1 (priority 2018, dated 2020).

What was measured:
[1] = target: T1, purified LasB protein from P. aeruginosa (Pseudomonas aeruginosa, UniProt P14756); experiment: Fluorometric assay to determine Ki (Abz-Ala-Gly-Leu-Ala-p-Nitro-Benzyl-Amide substrate); type: biochemical
T1 construct: purchased Merck or Charles River Laboratories
In short: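 Purified P. aeruginosa LasB (10–140 ng/ml) with 250 µM Abz-Ala-Gly-Leu-Ala-p-nitrobenzylamide in 50 mM Tris-HCl pH 7.4, 2.5 mM CaCl2, 0.01% Triton X100, 37 °C; hydrolysis fluorescence (Ex 340/Em 415 nm) followed over 30 min, inhibitor 0.0016–200 µM. Ki = IC50/(1+[S]/Km), Km 214 µM.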

[2] = target: T2, LasB (Pseudomonas aeruginosa, UniProt P14756); experiment: Elastin assay to determine % inhibition (Elastin Congo-Red, dialysed culture supernatant); type: biochemical, P. aeruginosa PAO1; settings: read-out: Elastin hydrolysis % inhibition @ 50 / 25 µM inhibitor concentration
T2 construct: uses as source of enzyme dialysed supernatant from P. aeruginosa PAO1; endogenous in cells; host or cells: P. aeruginosa PAO1 culture supernatant, filtered and dialysed
T2 sequence (P14756 198-498): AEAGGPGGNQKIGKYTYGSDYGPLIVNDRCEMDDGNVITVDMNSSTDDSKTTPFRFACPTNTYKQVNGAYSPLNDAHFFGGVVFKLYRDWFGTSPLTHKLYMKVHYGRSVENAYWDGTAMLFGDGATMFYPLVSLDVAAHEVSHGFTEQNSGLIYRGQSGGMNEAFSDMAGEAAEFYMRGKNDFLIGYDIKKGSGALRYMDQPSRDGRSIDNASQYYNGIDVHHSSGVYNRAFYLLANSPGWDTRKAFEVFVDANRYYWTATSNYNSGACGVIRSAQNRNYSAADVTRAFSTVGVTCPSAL
Procedure: Experiments were therefore conducted (1) to measure the potency of inhibition of compounds of the invention against purified Pseudomonas aeruginosa LasB enzyme and also experiments were conducted (2) to measure the ability of compounds of the invention to inhibit LasB-catalysed elastin degradation. The first assay uses a commercial fluorescent synthetic peptide and purified LasB enzyme. The LasB hydrolysis kinetics are measured allowing the determination of the IC50 and Ki of the inhibitors; the second is a more physiological assay using dialysed Pseudomonas aeruginosa supernatant as source of enzyme, plus its natural substrate Elastin. It is an "end point assay" that determines the percentage of LasB inhibition by each compound for one particular time point and inhibitor concentration. Technical details are described below:
The Elastin assay uses as source of enzyme dialysed supernatant from P. aeruginosa PAO1 and the Elastin Congo-Red as substrate. The natural LasB substrate, elastin, is complexed with the congo-red dye (Elastin Congo-Red, ECR). The elastolysis activity from the culture supernatant will degrade elastin and release the congo-red dye into the supernatant. This red dye release can be measured with a spectrophotometer.
Method: To determine LasB elastase activity and assess compound inhibition, an overnight culture of P. aeruginosa strain PAO1 is diluted in LB medium. After reaching an OD600nm of 0.6, this culture is diluted and incubated for additional 18-24 hours in a shaking incubator. Culture supernatants are recovered by centrifugation and filtrated through a […] filter. These supernatants are dialysed (filtration molecules < 20kDa) into a 50 mM Tris-HCl pH 7.4, 2.5 mM CaCl2 solution at 4°C under agitation for 24 hours. Supernatant dialysed is then mixed volume/volume with the ECR suspension (20 mg/mL of ECR in 100 mM Tris-HCl pH 7.4 buffer supplemented with 1 mM CaCl2) supplemented with Triton X100 (final concentration of 0.01%) in presence of DMSO (positive control) and/or different concentrations of compound (routinely 50 to 1.56 µM). As a negative control, the dialysed supernatant is replaced by Tris-HCl solution (50 mM Tris-HCl pH 7.4, 2.5 mM CaCl2). The mixed reaction is then incubated overnight in a 37°C shaking incubator. The reaction supernatant is recovered by centrifugation and the release of congo-red is measured by its absorbance at 495 nm (OD495nm).
Percentage inhibition is determined using the following equation: ((OD495nmvalue of positive control−OD495nmvalue of negative control)−(OD495nmvalue of treated supernatant−OD495nmvalue of positive control))/(OD495nmvalue of positive control−OD495nmvalue of negative control) × 100. [formula]

T1 sequence (P14756 198-498): as above

| SMILES | Ki [1] [nM] | inhibition at 25 µM [2] [%] |
| --- | --- | --- |
| COc1cc(OCC(=O)N2CCN(C)CC2)ccc1-c1csc(CNC(=O)C2(CC(=O)O)Cc3ccccc3C2)n1 [Example 63, 2-[2-[[4-[2-methoxy-4-[2-(4-methylpiperazin-1-yl)-2-oxo-ethoxy]phenyl]thiazol-2-yl]methylcarbamoyl]indan-2-yl]acetic acid] | 50 to 200 | > 75 |
| COc1cc(OCC(=O)N2CC([N+](C)(C)C)C2)ccc1-c1csc(CNC(=O)C2(CC(=O)[O-])Cc3cc(F)c(F)cc3C2)n1 [Example 64, 2-[5,6-difluoro-2-[[4-[2-methoxy-4-[2-oxo-2-[3-(trimethylammonio)azetidin-1-yl]ethoxy]phenyl]thiazol-2-yl]methylcarbamoyl]indan-2-yl]acetate] | 50 to 200 | 60 to 75 |
| COc1cc(OCC[N+]2(C)CCOCC2)ccc1-c1csc(CNC(=O)C2(CC(=O)[O-])Cc3ccccc3C2)n1 [Example 67, 2-[2-[[4-[2-methoxy-4-[2-(4-methylmorpholin-4-ium-4-yl)ethoxy]phenyl]thiazol-2-yl]methylcarbamoyl]indan-2-yl] acetate] | 50 to 200 | 60 to 75 |
| COc1cc(OCC[N+]2(C)CCOCC2)ccc1-c1csc(CNC(=O)C2(CC(=O)[O-])Cc3cc(F)c(F)cc3C2)n1 [Example 68, 2-[5,6-difluoro-2-[[4-[2-methoxy-4-[2-(4-methylmorpholin-4-ium-4-yl)ethoxy]phenyl]thiazol-2-yl]methylcarbamoyl]indan-2-yl]acetate] | 50 to 200 | 60 to 75 |
| COc1cc(OCCC[N+]2(C)CCOCC2)ccc1-c1csc(CNC(=O)C2(CC(=O)[O-])Cc3ccccc3C2)n1 [Example 69, 2-[2-[[4-[2-methoxy-4-[3-(4-methylmorpholin-4-ium-4-yl)propoxy]phenyl]thiazol-2-yl]methylcarbamoyl]indan-2-yl]acetate] | 50 to 200 | 10 to 60 |
| COc1cc(OCCC[N+]2(C)CCOCC2)ccc1-c1csc(CNC(=O)C2(CC(=O)[O-])Cc3cc(F)c(F)cc3C2)n1 [Example 70, 2-[5,6-difluoro-2-[[4-[2-methoxy-4-[3-(4-methylmorpholin-4-ium-4-yl)propoxy]phenyl]thiazol-2-yl]methylcarbamoyl]indan-2-yl]acetate] | 50 to 200 | 60 to 75 |
| COc1cc(OCCCN2CCOCC2)ccc1-c1csc(CNC(=O)C2(CC(=O)O)Cc3ccccc3C2)n1 [Example 71, 2-[2-[[4-[2-methoxy-4-(3-morpholinopropoxy)phenyl]thiazol-2-yl]methylcarbamoyl]indan-2-yl]acetic acid] | < 50 | > 75 |
| COc1cc(OCCCN2CCCC2)ccc1-c1csc(CNC(=O)C2(CC(=O)O)Cc3cc(F)c(F)cc3C2)n1 [Example 72, 2-[5,6-difluoro-2-[[4-[2-methoxy-4-(3-pyrrolidin-1-ylpropoxy)phenyl]thiazol-2-yl]methylcarbamoyl]indan-2-yl]acetic acid] | < 50 | 10 to 60 |
| COc1cc(OCCC[N+]2(C)CCCC2)ccc1-c1csc(CNC(=O)C2(CC(=O)[O-])Cc3cc(F)c(F)cc3C2)n1 [Example 73, 2-[5,6-difluoro-2-[[4-[2-methoxy-4-[3-(1-methylpyrrolidin-1-ium-1-yl)propoxy]phenyl]thiazol-2-yl]methylcarbamoyl]indan-2-yl)acetate] | 50 to 200 | 60 to 75 |
| COc1cc(OCc2ccncc2)ccc1-c1csc(CNC(=O)C2(CC(=O)O)Cc3ccccc3C2)n1 [Example 74, 2-[2-[[4-[2-methoxy-4-(4-pyridylmethoxy)phenyl]thiazol-2-yl]methylcarbamoyl]indan-2-yl]acetic acid] | < 50 | > 75 |
| COc1cc(OCc2cc[n+](C)cc2)ccc1-c1csc(CNC(=O)C2(CC(=O)[O-])Cc3ccccc3C2)n1 [Example 75, 2-[2-[[4-[2-methoxy-4-[(1-methylpyridin-1-ium-4-yl)methoxy]phenyl]thiazol-2-yl]methylcarbamoyl]indan-2-yl]acetate] | 50 to 200 | 60 to 75 |
| COc1cc(OCCN2CCOCC2)ccc1-c1csc(CNC(=O)C2(CC(=O)O)Cc3ccccc3C2)n1 [Example 76, 2-[2-[[4-[2-methoxy-4-(2-morpholinoethoxy)phenyl]thiazol-2-yl]methylcarbamoyl]indan-2-yl]acetic acid] | < 50 | > 75 |
| COc1cc(OCc2ccc[n+](C)c2)ccc1-c1csc(CNC(=O)C2(CC(=O)[O-])Cc3ccccc3C2)n1 [Example 77, 2-[2-[[4-[2-methoxy-4-[(1-methylpyridin-1-ium-3-yl)methoxy]phenyl]thiazol-2-yl]methylcarbamoyl]indan-2-yl]acetate] | 50 to 200 | 10 to 60 |
| COc1cc(OCc2cccnc2)ccc1-c1csc(CNC(=O)C2(CC(=O)O)Cc3ccccc3C2)n1 [Example 78, 2-[2-[[4-[2-methoxy-4-(3-pyridylmethoxy)phenyl]thiazol-2-yl]methylcarbamoyl]indan-2-yl]acetic acid] | < 50 | > 75 |
| COc1cc(OCC(=O)N2CC[N+](C)(C)CC2)ccc1-c1csc(CNC(=O)C2(CC(=O)[O-])Cc3ccccc3C2)n1 [Example 79, 2-[2-[[4-[4-[2-(4,4-dimethylpiperazin-4-ium-1-yl)-2-oxo-ethoxy]-2-methoxy-phenyl]thiazol-2-yl]methylcarbamoyl]indan-2-yl]acetate] | 50 to 200 | 60 to 75 |
| COc1cc(OCCCN(C)C)ccc1-c1csc(CNC(=O)C2(CC(=O)O)Cc3cc(F)c(F)cc3C2)n1 [Example 80, 2-[2-[[4-[4-[3-(dimethylamino)propoxy]-2-methoxyphenyl]thiazol-2-yl]methylcarbamoyl]-5,6-difluoro-indan-2-yl]acetic acid] | 50 to 200 | 60 to 75 |
| COc1cc(OCCC[N+](C)(C)C)ccc1-c1csc(CNC(=O)C2(CC(=O)[O-])Cc3cc(F)c(F)cc3C2)n1 [Example 81, 2-[5,6-difluoro-2-[[4-[2-methoxy-4-[3-(trimethylammonio)propoxy]phenyl]thiazol-2-yl]methylcarbamoyl]indan-2-yl] acetate] | 50 to 200 | 60 to 75 |
| COc1cc(OCC(=O)N2CC[N+](C)(C)CC2)ccc1-c1csc(CNC(=O)C2(CC(=O)[O-])Cc3cc(F)c(F)cc3C2)n1 [Example 82, 2-[2-[[4-[4-[2-(4,4-dimethylpiperazin-4-ium-1-yl)-2-oxo-ethoxy]-2-methoxy-phenyl]thiazol-2-yl]methylcarbamoyl]-5,6-difluoro-indan-2-yl]acetate] | 50 to 200 | 60 to 75 |
| COc1cc(OCCN2CCN(C)C(=O)C2)ccc1-c1csc(CNC(=O)C2(CC(=O)O)Cc3ccccc3C2)n1 [Example 83, 2-[2-[[4-[2-methoxy-4-[2-(4-methyl-3-oxo-piperazin-1-yl)ethoxy]phenyl]thiazol-2-yl]methylcarbamoyl]indan-2-yl]acetic acid] | < 50 | > 75 |
| COc1cc(OCC[N+]2(C)CCN(C)C(=O)C2)ccc1-c1csc(CNC(=O)C2(CC(=O)[O-])Cc3ccccc3C2)n1 (stereo not drawn) [Example 84, 2-[2-[[4-[4-[2-(1,4-dimethyl-3-oxo-piperazin-1-ium-1-yl)ethoxy]-2-methoxy-phenyl]thiazol-2-yl]methylcarbamoyl]indan-2-yl]acetate] | 50 to 200 | 60 to 75 |
| COc1cc(OCCc2nccn2C)ccc1-c1csc(CNC(=O)C2(CC(=O)O)Cc3ccccc3C2)n1 [Example 85, 2-[2-[[4-[2-methoxy-4-[2-(1-methylimidazol-2-yl)ethoxy]phenyl]thiazol-2-yl]methylcarbamoyl]indan-2-yl]acetic acid] | 50 to 200 | 60 to 75 |
